Experimental data reported in publication PMC8632988, “Inhibition of SYK and cSrc kinases can protect bone and cartilage in preclinical models of osteoarthritis and rheumatoid arthritis” (Scientific Reports, 2021).
Several values for one entry are separate records, joined by “and”; a condition that tells them apart may be missing. Identical values can stand only once.

Experiments:
Lewis rats, CIA model = test: Collagen-induced semi-established arthritis model in rats; type: in vivo, rat; conditions: for Inflammation score, % inhibition / Pannus score, % inhibition / Periosteal Bone Formation score, % inhibition / Periosteal Naïve Bone Width, % inhibition / Summed Histopathology Scores, % inhibition / Bone Resorption score, % inhibition / Cartilage Damage score, % inhibition: vs vehicle
Procedure: Rat CIA model was performed was performed at Pharmenterprises, Russia and approved by Ethics Committee of Pharmenterprises. Female Lewis rats with body weight of 164–183 g (Charles River Laboratories, Inc., Wilmington, MA) were injected with porcine type II collagen (Chondrex) emulsified with Freund’s Incomplete Adjuvant (Sigma Aldrich) at two sites at the base of the tail according to standard protocol. On day 7, the rats were boosted with a second subcutaneous injection. On day 6 of the study, rats were randomized by body weight into six groups: a control group of four, and five treatment groups of eight. […] Disease progression was monitored via daily ankle thickness measurements. At study termination on day 16 rats were anesthetized with Isoflurane, bled by vacutainer through the descending aorta to exsanguinate and then euthanized for tissue collection. Hind paws were transected at the level of the medial and lateral malleolus, weighed, and collected for microscopy.
[…]

MKK6 = target: T1, MKK6 (Homo sapiens, UniProt P52564); test: Kinase selectivity profile assay; type: biochemical; conditions: 500 nM; relative to DMSO; read-out: Residual enzymatic activity
T1 construct: purchased Reaction Biology Corporation
T1 sequence (P52564 whole entry): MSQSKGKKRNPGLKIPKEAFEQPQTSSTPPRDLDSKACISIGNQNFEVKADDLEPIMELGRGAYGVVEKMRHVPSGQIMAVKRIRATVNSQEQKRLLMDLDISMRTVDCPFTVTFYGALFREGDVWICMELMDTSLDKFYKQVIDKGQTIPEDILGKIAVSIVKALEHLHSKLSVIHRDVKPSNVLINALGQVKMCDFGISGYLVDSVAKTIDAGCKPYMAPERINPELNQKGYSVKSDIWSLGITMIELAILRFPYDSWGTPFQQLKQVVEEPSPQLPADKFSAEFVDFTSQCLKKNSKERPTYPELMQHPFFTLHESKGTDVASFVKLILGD
Procedure: (§1) The activity of MT-SYK-03 against cSrc kinase and selectivity profile towards other 341 kinases was determined at Reaction Biology Corporation (Malvern, PA, USA) using the standard kinase assay protocol. […]; unbound phosphate was removed by extensive washing of filters in phosphoric acid. Kinase activity data was expressed as the percent remaining kinase activity in test samples compared to vehicle (dimethyl sulfoxide) reactions based on the radioactivity of reaction products (see Table S2). Experiment was replicated twice.

CSK = target: T2, CSK (Homo sapiens, UniProt P41240); test: Kinase selectivity profile assay; type: biochemical
T2 construct: purchased Reaction Biology Corporation (assay service)
T2 sequence (P41240 whole entry): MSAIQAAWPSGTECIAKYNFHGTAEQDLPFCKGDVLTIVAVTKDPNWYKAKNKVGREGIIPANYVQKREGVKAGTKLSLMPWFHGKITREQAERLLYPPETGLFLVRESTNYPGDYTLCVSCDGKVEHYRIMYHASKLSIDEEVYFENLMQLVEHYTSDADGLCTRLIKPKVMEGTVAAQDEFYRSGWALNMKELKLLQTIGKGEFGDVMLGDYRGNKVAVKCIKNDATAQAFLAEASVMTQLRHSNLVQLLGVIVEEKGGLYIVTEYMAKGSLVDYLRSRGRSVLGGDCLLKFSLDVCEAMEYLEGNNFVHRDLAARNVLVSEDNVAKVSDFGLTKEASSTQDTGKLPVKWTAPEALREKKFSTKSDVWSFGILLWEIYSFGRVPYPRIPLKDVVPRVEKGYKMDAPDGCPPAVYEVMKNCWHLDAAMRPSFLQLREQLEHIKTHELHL
Procedure: as §1

VRK1 = target: T3, VRK1 (Homo sapiens, UniProt Q99986); test: Kinase selectivity profile assay; type: biochemical; conditions: 500 nM; relative to DMSO; read-out: Residual enzymatic activity
T3 construct: purchased Reaction Biology Corporation
T3 sequence (Q99986 whole entry): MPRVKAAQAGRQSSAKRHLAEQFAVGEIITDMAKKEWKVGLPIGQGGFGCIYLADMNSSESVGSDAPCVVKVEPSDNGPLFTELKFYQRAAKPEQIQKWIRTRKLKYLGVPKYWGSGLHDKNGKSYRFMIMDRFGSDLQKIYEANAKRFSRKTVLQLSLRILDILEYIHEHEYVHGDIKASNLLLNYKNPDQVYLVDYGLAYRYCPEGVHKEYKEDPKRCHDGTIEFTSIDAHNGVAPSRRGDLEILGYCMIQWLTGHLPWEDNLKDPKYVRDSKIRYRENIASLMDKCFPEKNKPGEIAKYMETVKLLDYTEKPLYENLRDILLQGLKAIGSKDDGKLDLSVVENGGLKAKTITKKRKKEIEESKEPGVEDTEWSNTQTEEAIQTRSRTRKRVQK
Procedure: as §1

STK32B/YANK2 = target: T4, STK32B/YANK2 (Homo sapiens, UniProt Q9NY57); test: Kinase selectivity profile assay; type: biochemical; conditions: 500 nM; relative to DMSO; read-out: Residual enzymatic activity
T4 construct: purchased Reaction Biology Corporation
T4 sequence (Q9NY57 whole entry): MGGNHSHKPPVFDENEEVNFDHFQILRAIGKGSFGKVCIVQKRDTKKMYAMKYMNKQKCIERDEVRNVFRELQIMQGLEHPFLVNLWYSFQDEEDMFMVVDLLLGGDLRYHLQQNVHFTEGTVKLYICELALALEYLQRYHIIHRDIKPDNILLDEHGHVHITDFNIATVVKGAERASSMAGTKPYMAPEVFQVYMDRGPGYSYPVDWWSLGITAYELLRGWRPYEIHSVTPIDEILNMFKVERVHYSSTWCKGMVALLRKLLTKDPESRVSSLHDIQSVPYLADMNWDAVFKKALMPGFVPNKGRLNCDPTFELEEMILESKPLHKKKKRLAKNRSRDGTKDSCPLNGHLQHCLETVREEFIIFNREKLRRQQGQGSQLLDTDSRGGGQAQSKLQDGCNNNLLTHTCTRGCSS
Procedure: as §1

[1] = ankle, day 16, MT-SYK-03 103 mg/kg PO BID + MTX Veh PO QD
[2] = ankle, day 16, MT-SYK-03 207 mg/kg PO BID, group mean
[3] = ankle, day 16, MT-SYK-03 207 mg/kg PO BID, individual joint (animal, R/L), 207 mg/kg
[4] = ankle, day 16, MT-SYK-03 207 mg/kg PO BID
[5] = knee, day 16, MT-SYK-03 103 mg/kg PO BID + MTX Veh PO QD, group mean
[6] = knee, day 16, MT-SYK-03 103 mg/kg PO BID + MTX Veh PO QD, individual joint (animal, R/L), 103 mg/kg
[7] = knee, day 16, MT-SYK-03 103 mg/kg PO BID + MTX Veh PO QD
[8] = knee, day 16, MT-SYK-03 207 mg/kg PO BID + MTX Veh PO QD, group mean
[9] = knee, day 16, MT-SYK-03 207 mg/kg PO BID + MTX Veh PO QD, individual joint (animal, R/L), 207 mg/kg
[10] = knee, day 16, MT-SYK-03 207 mg/kg PO BID + MTX Veh PO QD

For `COc1cc(Nc2ncnc(Nc3cc4c(cn3)NC(=O)C(C)(C)O4)n2)cc(OC)c1OC` [MT-SYK-03], the “Inflammation score, % inhibition” value (Lewis rats, CIA model; [1]) was 1%, the “Pannus score, % inhibition” value (Lewis rats, CIA model; [1]) was -2% and the “Periosteal Bone Formation score, % inhibition” value (Lewis rats, CIA model; [1]) was 7%. For the same molecule, the “Periosteal Naïve Bone Width, % inhibition” value (Lewis rats, CIA model; [1]) was 11%, the “Summed Histopathology Scores, % inhibition” value (Lewis rats, CIA model; [1]) was 4% and the “Bone Resorption score, Mean” value (Lewis rats, CIA model; [2]) was 1.06. The “Cartilage Damage score, Mean” value (Lewis rats, CIA model; [2]) was 1.78, the “Inflammation score, Mean” value (Lewis rats, CIA model; [2]) was 3.84 and the “Pannus score, Mean” value (Lewis rats, CIA model; [2]) was 1.06. For the same molecule, the “Periosteal Bone Formation score, Mean” value (Lewis rats, CIA model; [2]) was 0.69, the “Periosteal Naïve Bone Width Actual, Mean” value (Lewis rats, CIA model; [2]) was 129.94 μm and the “Summed Histopathology Scores, Mean” value (Lewis rats, CIA model; [2]) was 8.44. For the same molecule, the “Bone Resorption score (0=normal to 5=severe)” value (Lewis rats, CIA model; [3]) was 1 and 2 and 0 and 0.5, the “Cartilage Damage score (0=normal to 5=severe)” value (Lewis rats, CIA model; [3]) was 2 and 3 and 0.5 and 1 and the “Inflammation score (0=normal to 5=severe)” value (Lewis rats, CIA model; [3]) was 4 and 5 and 0.5 and 1 and 2 and 3. For the same molecule, the “Pannus score (0=normal to 5=severe)” value (Lewis rats, CIA model; [3]) was 1 and 2 and 0 and 0.5, the “Periosteal Bone Formation score (0=normal to 5=severe)” value (Lewis rats, CIA model; [3]) was 0.5 and 1 and 0 and 2 and the “Periosteal Naïve Bone Width 16x Measure” value (Lewis rats, CIA model; [3]) was 1 and 2 and 3 and 4 and 0 and 5. For the same molecule, the “Periosteal Naïve Bone Width Actual” value (Lewis rats, CIA model; [3]) was 63 μm and 126 μm and 189 μm and 252 μm and 0 μm and 315 μm, the “Summed Histopathology Scores” value (Lewis rats, CIA model; [3]) was 8.5 and 12.5 and 13 and 12 and 10 and 1 and 1.5 and 3.5 and 4 and 14 and 6.5 and the “Periosteal Naïve Bone Width, ANOVA to Vehicle” value (Lewis rats, CIA model; ankle, day 16, MT-SYK-03 207 mg/kg PO BID, p value) was “p < 0.05”. For the same molecule, the “Bone Resorption score, % inhibition” value (Lewis rats, CIA model; [4]) was 28%, the “Cartilage Damage score, % inhibition” value (Lewis rats, CIA model; [4]) was 26% and the “Inflammation score, % inhibition” value (Lewis rats, CIA model; [4]) was 15%. For the same molecule, the “Pannus score, % inhibition” value (Lewis rats, CIA model; [4]) was 28%, the “Periosteal Bone Formation score, % inhibition” value (Lewis rats, CIA model; [4]) was 46% and the “Periosteal Naïve Bone Width, % inhibition” value (Lewis rats, CIA model; [4]) was 42%. The “Summed Histopathology Scores, % inhibition” value (Lewis rats, CIA model; [4]) was 24%, the “Bone Resorption score, Mean” value (Lewis rats, CIA model; [5]) was 0.66 and the “Cartilage Damage score, Mean” value (Lewis rats, CIA model; [5]) was 1.03. The “Inflammation score, Mean” value (Lewis rats, CIA model; [5]) was 2.78, the “Pannus score, Mean” value (Lewis rats, CIA model; [5]) was 0.72 and the “Summed Histopathology Scores, Mean” value (Lewis rats, CIA model; [5]) was 5.19. For the same molecule, the “Bone Resorption score (0=normal to 5=severe)” value (Lewis rats, CIA model; [6]) was 1 and 2 and 0 and 0.5, the “Cartilage Damage score (0=normal to 5=severe)” value (Lewis rats, CIA model; [6]) was 2 and 0 and 1 and 0.5 and the “Inflammation score (0=normal to 5=severe)” value (Lewis rats, CIA model; [6]) was 5 and 0.5 and 4 and 3 and 2. For the same molecule, the “Pannus score (0=normal to 5=severe)” value (Lewis rats, CIA model; [6]) was 1 and 2 and 0 and 0.5, the “Summed Histopathology Scores” value (Lewis rats, CIA model; [6]) was 9 and 11 and 0.5 and 7 and 8 and 5 and 4.5 and 3 and 1 and the “Bone Resorption score, % inhibition” value (Lewis rats, CIA model; [7]) was 9%. For the same molecule, the “Cartilage Damage score, % inhibition” value (Lewis rats, CIA model; [7]) was 21%, the “Inflammation score, % inhibition” value (Lewis rats, CIA model; [7]) was 13% and the “Pannus score, % inhibition” value (Lewis rats, CIA model; [7]) was 4%. For the same molecule, the “Summed Histopathology Scores, % inhibition” value (Lewis rats, CIA model; [7]) was 13%, the “Bone Resorption score, Mean” value (Lewis rats, CIA model; [8]) was 0.16 and the “Cartilage Damage score, Mean” value (Lewis rats, CIA model; [8]) was 0.56. The “Inflammation score, Mean” value (Lewis rats, CIA model; [8]) was 1.59, the “Pannus score, Mean” value (Lewis rats, CIA model; [8]) was 0.41 and the “Summed Histopathology Scores, Mean” value (Lewis rats, CIA model; [8]) was 2.63. For the same molecule, the “Bone Resorption score (0=normal to 5=severe)” value (Lewis rats, CIA model; [9]) was 0.5 and 1 and 0, the “Cartilage Damage score (0=normal to 5=severe)” value (Lewis rats, CIA model; [9]) was 1 and 0 and 0.5 and the “Inflammation score (0=normal to 5=severe)” value (Lewis rats, CIA model; [9]) was 4 and 1 and 0 and 2 and 3 and 0.5. For the same molecule, the “Pannus score (0=normal to 5=severe)” value (Lewis rats, CIA model; [9]) was 0.5 and 1 and 0, the “Summed Histopathology Scores” value (Lewis rats, CIA model; [9]) was 6 and 7 and 2.5 and 0 and 3 and 4.5 and 2 and 5 and 5.5 and 3.5 and 0.5 and the “Bone Resorption score, ANOVA to Vehicle” value (Lewis rats, CIA model; knee, day 16, MT-SYK-03 207 mg/kg PO BID + MTX Veh PO QD, p value) was “p < 0.05”. The “Bone Resorption score, % inhibition” value (Lewis rats, CIA model; [10]) was 78%, the “Cartilage Damage score, % inhibition” value (Lewis rats, CIA model; [10]) was 57% and the “Inflammation score, % inhibition” value (Lewis rats, CIA model; [10]) was 50%. For the same molecule, the “Pannus score, % inhibition” value (Lewis rats, CIA model; [10]) was 46%, the “Summed Histopathology Scores, % inhibition” value (Lewis rats, CIA model; [10]) was 56% and the “Histopathology scores for cartilage damage and bone resorption, ankles and knees” value (Lewis rats, CIA model; rat CIA, day 16) was “chondroprotective and antiresorptive effects”. For the same molecule, the “Histopathology scores of inflammation and pannus formation” value (Lewis rats, CIA model; rat CIA, day 16) was “smaller”, the “Relative weights of thymus, liver and spleen” value (Lewis rats, CIA model; rat CIA, day 16) was “statistically identical across all groups” and the remaining activity at 0.5 µM (MKK6) was 116%. For the same molecule, the remaining activity at 0.5 µM (CSK; 500 nM, relative to DMSO, read-out: Residual enzymatic activity) was 34.8%, the IC50 (CSK; 10-dose mode, threefold serial dilution from 10 μM) was 0.238 µM and the remaining activity at 0.5 µM (VRK1) was 102%. It also gave a remaining activity at 0.5 µM (STK32B/YANK2) of 103%.
